Drawing on BindingDB's records for doi:10.1021/jm00120a002 (Merck Sharp & Dohme Research Laboratories, 1989), this text covers IC50 for 82 molecules.

The test is described as follows: Half-maximal inhibition of [125I]gastrin binding to guinea pig gastric glands.
For `O=C(NC1N=C(c2ccccc2F)c2ccccc2NC1=O)c1ccsc1` (configuration not stated), the IC50 (commonly the point on the concentration scale where inhibition reaches its midpoint) was > 10 µM.

On to `CCOC(=O)CN1C(=O)C(NC(=O)c2cc3ccccc3[nH]2)N=C(c2ccccc2F)c2ccccc21` (configuration not stated), for which the 50% inhibitory concentration (IC50) stood at 0.12 µM.

For `CN1C(=O)C(NC(=O)c2ccc(C(C)(C)C)cc2)N=C(c2ccccc2F)c2ccccc21` (configuration not stated), the IC50 turned out to be 6.4 µM.

As to `O=C(O)CN1C(=O)C(NC(=O)c2cc3ccccc3[nH]2)N=C(c2ccccc2F)c2ccccc21` (configuration not stated), the IC50 is 0.39 µM.

`O=C(NC1N=C(c2ccccc2F)c2ccccc2NC1=O)c1cc2cc(Br)ccc2[nH]1` (configuration not stated): the IC50 was > 10 µM.

Molecule `O=C(NC1N=C(c2ccccc2)c2ccccc2NC1=O)c1ccc2ccccc2c1` (configuration not stated) came in with a half-maximal inhibitory concentration (IC50) of 14 µM.

Molecule `CCOC(=O)CN1C(=O)C(NC=O)N=C(c2ccccc2)c2ccccc21` (configuration not stated) displayed an IC50 of 25 µM.

As to `CN1C(=O)C(NC(=O)c2ccsc2)N=C(c2ccccc2F)c2ccccc21` (configuration not stated), the half-inhibitory concentration (IC50) worked out at 11 µM.

For the molecule `O=C(NC1N=C(c2ccccc2F)c2ccccc2NC1=O)c1ncc2ccccc2n1` (configuration not stated), the IC50 is > 10 µM.

`O=C(NC1N=C(c2ccccc2F)c2ccccc2N(C(=O)c2ccc(Cl)cc2)C1=O)c1ccc(Cl)cc1` (configuration not stated) gave a half-inhibitory concentration (IC50) of 0.55 µM.

As to `O=C(O)CN1C(=O)C(NC(=O)c2ccc(Cl)cc2)N=C(c2ccccc2F)c2ccccc21` (configuration not stated), the concentration for half-maximal inhibition (IC50) is 8.2 µM.

For `Cc1ccc(C(=O)NC2N=C(c3ccccc3F)c3ccccc3NC2=O)cc1` (configuration not stated), the 50% inhibitory concentration (IC50) came out at 5 µM.

`O=C(NC1N=C(c2ccccc2)c2ccccc2NC1=O)C1Cc2ccccc2N1` (configuration not stated) came in with a concentration for half-maximal inhibition (IC50) of 110 µM. Compared with the last molecule, the IC50 is about 22-fold higher.

Consider `CC(C)(C)OC(=O)N[C@H](Cc1c[nH]c2ccccc12)C(=O)NC1N=C(c2ccccc2)c2ccccc2NC1=O` (some centres not stated), for which the concentration for half-maximal inhibition (IC50) was > 100 µM.

In turn, `O=C(NC1N=C(c2ccccc2)c2ccccc2NC1=O)c1ccc(F)cc1` (configuration not stated) registered an IC50 of 9.4 µM.

As to `CCCCCc1ccc(C(=O)NC2N=C(c3ccccc3)c3ccccc3NC2=O)cc1` (configuration not stated), the IC50 was > 100 µM.

Molecule `CN1C(=O)C(NC(=O)c2cc3ccccc3n2C)N=C(c2ccccc2F)c2ccccc21` (configuration not stated) gave an IC50 of 1.6 µM.

Regarding `O=C(NC1N=C(c2ccccc2F)c2ccccc2NC1=O)c1ccc(C(F)(F)F)cc1` (configuration not stated), the IC50 was determined as 9.5 µM.

Consider `O=C(NC1N=C(c2ccccc2)c2ccccc2NC1=O)c1ccc(C(F)(F)F)cc1` (configuration not stated), for which the IC50 is 36 µM.

With `O=C(NC1N=C(c2ccccc2F)c2ccccc2NC1=O)c1ccccc1` (configuration not stated), the half-maximal inhibitory concentration (IC50) was 28 µM. This IC50 and that of the molecule before are within 1.5-fold of each other.

Molecule `O=C(/C=C/c1ccccc1)NC1N=C(c2ccccc2F)c2ccccc2NC1=O` (configuration not stated) displayed a half-inhibitory concentration (IC50) of 3.8 µM.

As for `CCCc1ccc(C(=O)NC2N=C(c3ccccc3)c3ccccc3NC2=O)cc1` (configuration not stated), the IC50 is 80 µM. Compared with the last molecule, the IC50 is about 21-fold higher.

The molecule `O=C(NC1N=C(c2ccccc2)c2ccccc2NC1=O)c1cc(Cl)cc(Cl)c1` (configuration not stated) had an IC50 of 180 µM. Compared with the last molecule, the IC50 is about 2.2-fold higher.

Molecule `O=C(Cc1cccc2sccc12)NC1N=C(c2ccccc2F)c2ccccc2NC1=O` (configuration not stated) showed a 50% inhibitory concentration (IC50) of 3.9 µM.

In turn, `O=C(NC1N=C(c2ccccc2)c2ccccc2NC1=O)c1c[nH]c2ccccc12` (configuration not stated) registered a 50% inhibitory concentration (IC50) of 18 µM.

Consider `O=C(NC1N=C(c2ccccc2)c2ccccc2NC1=O)c1ccc(Cl)cc1` (configuration not stated), for which the half-inhibitory concentration (IC50) was determined as 8.2 µM.

For `CN1C(=O)C(NC(=O)c2cccc(I)c2)N=C(c2ccccc2F)c2ccccc21` (configuration not stated), the concentration for half-maximal inhibition (IC50) was determined as 0.39 µM.

With `O=C(NC1N=C(c2ccccc2)c2ccccc2NC1=O)c1cccc2ccccc12` (configuration not stated), the half-maximal inhibitory concentration (IC50) stood at 29 µM.

With `COc1ccc2[nH]c(C(=O)NC3N=C(c4ccccc4F)c4ccccc4NC3=O)cc2c1` (configuration not stated), the IC50 is > 10 µM.

Regarding `O=C1Nc2ccccc2C(c2ccccc2F)=NC1NCc1cc2ccccc2[nH]1` (configuration not stated), the half-inhibitory concentration (IC50) is > 10 µM.

In the case of `CN1C(=O)C(NC(=O)[C@H](Cc2ccccc2)NC(=O)OC(C)(C)C)N=C(c2ccccc2F)c2ccccc21` (some centres not stated), the half-maximal inhibitory concentration (IC50) came to 1.2 µM.

`CN1C(=O)C(NC(=O)[C@@H](Cc2ccccc2)NC(=O)OC(C)(C)C)N=C(c2ccccc2)c2ccccc21` (some centres not stated) gave an IC50 of 26 µM.

With `CN1C(=O)C(NC(=O)c2ccccc2Cl)N=C(c2ccccc2)c2ccccc21` (configuration not stated), the IC50 is 30 µM.

As for `O=C1Nc2ccccc2C(c2ccccc2F)=NC1NC(=O)C(O)c1ccccc1` (configuration not stated), the IC50 was > 10 µM.

`O=C1Nc2ccccc2C(c2ccccc2)=NC1NCCc1c[nH]c2ccccc12` (configuration not stated): the IC50 was > 100 µM.

Molecule `O=C(NC1N=C(c2ccccc2F)c2ccccc2NC1=O)c1ccc[nH]1` (configuration not stated) displayed a concentration for half-maximal inhibition (IC50) of 25 µM.

With `O=C(Cc1c[nH]c2ccccc12)NC1N=C(c2ccccc2)c2ccccc2NC1=O` (configuration not stated), the IC50 is 32 µM. The IC50 values of the last two molecules are within 1.5-fold of each other.

Turning to `Cn1c(C(=O)NC2N=C(c3ccccc3F)c3ccccc3NC2=O)cc2ccccc21` (configuration not stated), the half-inhibitory concentration (IC50) stood at 6.3 µM. This IC50 is about 5.1-fold lower than that of the molecule before.

In the case of `O=C(NC1N=C(c2ccccc2)c2ccccc2NC1=O)c1ccc(O)cc1` (configuration not stated), the IC50 came out at 31 µM.

For the molecule `O=C(NC1N=C(c2ccccc2)c2ccccc2NC1=O)c1cc2ccccc2[nH]1` (configuration not stated), the IC50 amounted to 4 µM. This IC50 lies about 7.8-fold lower than the previous one.

Turning to `O=C(NC1N=C(c2ccccc2F)c2ccccc2NC1=O)c1ccc([N+](=O)[O-])cc1` (configuration not stated), the concentration for half-maximal inhibition (IC50) was > 10 µM.

For `CN1C(=O)C(N(C)C(=O)c2ccccc2Cl)N=C(c2ccccc2)c2ccccc21` (configuration not stated), the IC50 is > 100 µM.

`O=C(NC1N=C(c2ccccc2)c2ccccc2NC1=O)c1ccc(Cl)c(Cl)c1` (configuration not stated) registered an IC50 of 25 µM.

As for `O=C(NC1N=C(c2ccccc2F)c2ccccc2NC1=O)c1cc2ccccc2o1` (configuration not stated), the half-inhibitory concentration (IC50) stood at 11 µM.

Molecule `O=C(NC1N=C(c2ccccc2F)c2ccccc2NC1=O)c1cc2ccccc2[nH]1` (configuration not stated) registered a 50% inhibitory concentration (IC50) of 4.6 µM.

Molecule `CN1C(=O)[C@H](NC(=O)c2cc3ccccc3[nH]2)N=C(c2ccccc2F)c2ccccc21` returned an IC50 of 0.24 µM.

As to `O=C(NC1N=C(c2ccccc2)c2ccccc2NC1=O)c1ccc(-c2ccccc2)cc1` (configuration not stated), the IC50 is > 100 µM.

In turn, `O=C(NC1N=C(c2ccccc2F)c2ccccc2NC1=O)c1ccc(Cl)cc1` (configuration not stated) yielded an IC50 of 14 µM.

The molecule `CN1C(=O)CN=C(c2ccccc2)c2ccccc21` gave an IC50 of 94 µM.

With `O=C(CCc1c[nH]c2ccccc12)NC1N=C(c2ccccc2)c2ccccc2NC1=O` (configuration not stated), the IC50 amounted to 17 µM.

As to `CSc1ccc(C(=O)NC2N=C(c3ccccc3)c3ccccc3NC2=O)cc1` (configuration not stated), the IC50 was 8 µM.

On to `CN(C(=O)c1cc2ccccc2[nH]1)C1N=C(c2ccccc2)c2ccccc2NC1=O` (configuration not stated), for which the concentration for half-maximal inhibition (IC50) is > 10 µM.

`COc1ccc(C(=O)NC2N=C(c3ccccc3F)c3ccccc3NC2=O)cc1` (configuration not stated): the half-maximal inhibitory concentration (IC50) was 5.4 µM.

Consider `CN1C(=O)C(NC(=O)c2ccc(Cl)cc2)[N+]([O-])=C(c2ccccc2F)c2ccccc21` (configuration not stated), for which the 50% inhibitory concentration (IC50) came to 2.4 µM.

As for `CC1(C(=O)NC2N=C(c3ccccc3F)c3ccccc3NC2=O)C=Cc2ccccc21` (configuration not stated), the half-maximal inhibitory concentration (IC50) was > 10 µM.

As for `CC(C)(C)OC(=O)N[C@H](Cc1ccccc1)C(=O)NC1N=C(c2ccccc2)c2ccccc2NC1=O` (some centres not stated), the concentration for half-maximal inhibition (IC50) was > 100 µM.

The molecule `CN1C(=O)[C@@H](NC(=O)c2ccc(Cl)cc2)N=C(c2ccccc2F)c2ccccc21` registered an IC50 of 0.8 µM.

Molecule `CN1C(=O)[C@@H](NC(=O)c2ccc(C(F)(F)F)cc2)N=C(c2ccccc2F)c2ccccc21` returned a concentration for half-maximal inhibition (IC50) of 0.44 µM.

In the case of `CN1C(=O)[C@@H](NC(=O)c2ccc(Br)cc2)N=C(c2ccccc2F)c2ccccc21`, the concentration for half-maximal inhibition (IC50) came out at 0.68 µM.

In turn, `CN1C(=O)[C@@H](NC(=O)c2ccc(C#N)cc2)N=C(c2ccccc2F)c2ccccc21` showed a half-maximal inhibitory concentration (IC50) of 9 µM.

Turning to `CC(C)C(=O)N[C@H]1N=C(c2ccccc2)c2ccccc2N(C)C1=O`, the IC50 was determined as 73 µM.

As to `CN1C(=O)[C@@H](NC(=O)c2ccccc2I)N=C(c2ccccc2)c2ccccc21`, the half-maximal inhibitory concentration (IC50) is 38 µM.

Molecule `CN1C(=O)[C@H](NC(=O)c2ccc(C(F)(F)F)cc2)N=C(c2ccccc2)c2ccccc21` came in with an IC50 of 4.2 µM. Against the preceding molecule, the IC50 is about 9-fold lower.

Regarding `CN1C(=O)[C@H](NC(=O)C2CCCCC2)N=C(c2ccccc2)c2ccccc21`, the IC50 came out at 1.5 µM.

`CN1C(=O)[C@@H](NC(=O)c2ccccc2Cl)N=C(c2ccccc2)c2ccccc21` had a concentration for half-maximal inhibition (IC50) of 130 µM. Against the preceding molecule, the IC50 is about 87-fold higher.

Consider `CN1C(=O)[C@@H](NC(=O)C(C)(C)C)N=C(c2ccccc2)c2ccccc21`, for which the IC50 was found to be 13 µM.

`CN1C(=O)[C@@H](NC(=O)c2cc3ccccc3[nH]2)N=C(c2ccccc2F)c2ccccc21` gave an IC50 of 0.028 µM.

In turn, `CCCCCc1ccc(C(=O)N[C@H]2N=C(c3ccccc3F)c3ccccc3N(C)C2=O)cc1` had an IC50 of 60 µM.

With `CN1C(=O)[C@H](NC(=O)c2ccccc2Cl)N=C(c2ccccc2F)c2ccccc21`, the IC50 is 3.7 µM.

Molecule `CN1C(=O)[C@@H](NC(=O)c2ccc(I)cc2)N=C(c2ccccc2F)c2ccccc21` yielded an IC50 of 0.53 µM.

In turn, `CN1C(=O)[C@@H](NC(=O)c2cccc(Br)c2)N=C(c2ccccc2F)c2ccccc21` had an IC50 of 0.75 µM. This IC50 and that of the molecule before are within 1.5-fold of each other.

The molecule `CC(C)CCC(=O)N[C@H]1N=C(c2ccccc2)c2ccccc2N(C)C1=O` displayed an IC50 of 130 µM.

The molecule `CN1C(=O)[C@@H](NC(=O)/C=C/c2ccccc2)N=C(c2ccccc2)c2ccccc21` came in with a concentration for half-maximal inhibition (IC50) of 0.18 µM. This IC50 lies about 720-fold lower than the previous one.

With `CN1C(=O)[C@@H](NC(=O)c2ccc(Br)cc2)N=C(c2ccccc2)c2ccccc21`, the IC50 came to 0.8 µM.

In turn, `CN1C(=O)C(NC(=O)C(Cc2ccccc2)NC(=O)OC(C)(C)C)N=C(c2ccccc2F)c2ccccc21` (configuration not stated) registered a half-maximal inhibitory concentration (IC50) of 2.9 µM.

Take `CN1C(=O)[C@H](NC(=O)c2ccccc2Cl)N=C(c2ccccc2)c2ccccc21`: the 50% inhibitory concentration (IC50) was determined as 7.5 µM. Compared with the last molecule, the IC50 is about 2.6-fold higher.

`CN1C(=O)[C@H](NC(=O)c2ccc(Cl)cc2)N=C(c2ccccc2F)c2ccccc21` displayed an IC50 of 5.2 µM.

Turning to `CN1C(=O)[C@@H](NC(=O)c2ccccc2I)N=C(c2ccccc2F)c2ccccc21`, the IC50 was 11 µM.

For `CN1C(=O)C(NC(=O)c2cc3ccccc3[nH]2)N=C(c2ccccc2F)c2ccccc21` (configuration not stated) [1H-Indole-2-carboxylic acid [5-(2-fluoro-phenyl)-1-methyl-2-oxo-2,3-dihydro-1H-benzo[e][1,4]diazepin-3-yl]-amide], the IC50 is 0.19 µM. This IC50 is about 58-fold lower than that of the molecule before.

As for `CN1C(=O)C(NC(=O)c2ccc(Cl)cc2N)N=C(c2ccccc2)c2ccccc21` (configuration not stated) [2-Amino-4-chloro-N-(1-methyl-2-oxo-5-phenyl-2,3-dihydro-1H-benzo[e][1,4]diazepin-3-yl)-benzamide.H2O], the IC50 came out at 1.9 µM.

For the molecule `O=C(NC1N=C(c2ccccc2)c2ccccc2NC1=O)c1ccccc1Cl` (configuration not stated) [2-Chloro-N-(2-oxo-5-phenyl-2,3-dihydro-1H-benzo[e][1,4]diazepin-3-yl)-benzamide. 0.02CHCl3], the IC50 amounted to 52 µM.

Turning to `O=C(NC1N=C(c2ccccc2F)c2ccccc2NC1=O)c1ccccc1Cl` (configuration not stated) [2-Chloro-N-[5-(2-fluoro-phenyl)-2-oxo-2,3-dihydro-1H-benzo[e][1,4]diazepin-3-yl]-benzamide: 0.1C4H8O2], the half-inhibitory concentration (IC50) was determined as 18 µM.
